Reference: publication PMC4581321, “Inhibitory Effects of Amorphigenin on the Mitochondrial Complex I of Culex pipiens pallens Coquillett (Diptera: Culicidae)” (International Journal of Molecular Sciences, 2015)
In brackets after ≈: the same amount, converted by molar mass. Like-named read-outs stand apart in the source and are kept apart here.

Columns and labels:
[1] = system: fourth instar larvae of A. aegypti; set-up: method as in doi:10.1016/S0031-9422(00)83185-4; details: 10 ppm; cited from earlier work
[2] = system: mammalian NADH-ubiquinone reductase; set-up: method as in PMID 7925463; details: relative to rotenone; cited from earlier work
[3] = system: 3th instar larvae of Bombyx mori; details: cited from earlier work; for LC50: 3th instar larvae
[4] = system: acetylcholinesterase enzyme; set-up: method as in doi:10.1016/j.pestbp.2011.12.002; details: cited from earlier work
[5] = system: mitochondrial complex I of Cx. pipiens pallens; assay: In vivo inhibition of mitochondrial complex I activity (fourth-instar larvae exposed 24 h, then mitochondria isolated); set-up: species or system Culex pipiens pallens; details: for decrease of mitochondrial complex I activity compared with control: 24 h
[6] = system: mitochondrial complex I of Cx. pipiens pallens; assay: In vitro inhibition of mitochondrial complex I activity (NADH oxidation at 340 nm, isolated larval mitochondria); type: biochemical, Culex pipiens pallens; details: NADH substrate; for IC50: isolated mitochondria, read-out: IC50 (μmol/L), in vitro
Procedure: The mitochondria of the fourth instar larvae of Cx. pipiens pallens were isolated according to the method of Akbar et al. with suitable modifications. The larvae were washed in a cold extraction medium (0.25 M sucrose solution containing 0.25% defatted BSA), then homogenized in a Potter–Elvehjem homogenizer under cold conditions. The homogenate was filtered through a moist muslin cloth and the filtrate centrifuged at 1000× g for 15 min at 4 °C. The residue was re-suspended in the extraction medium and centrifuged at 1000× g for 15 min at 4 °C. The supernatants from both centrifugations were combined and centrifuged at 12,000× g for 15 min at 4 °C. The mitochondrial pellet was re-suspended in the extraction medium, and stored at −80 °C until used. The protein concentration was determined by Smith’s method using BSA as the standard.
The mitochondrial complex I activity of Cx. pipiens pallens was determined as described by Birch-Machin et al. with adaptations for a 96-well format. It is well known that the mitochondrial complex I has two substrates, NADH and ubiquinone. […] The activity was measured by following the decrease in absorbance due to the oxidation of NADH at 340 nm with 425 nm as the reference wavelength. In brief, 20 μL of mitochondria and 160 μL of assay buffer containing 25 mM phosphate buffer (pH 7.2), 5 mM MgCl2, 2 mM NaN3 and 2.5 mg/mL BSA were added to each well of the 96-well plate, then the microplate was incubated for 20 min at 37 °C in a microplate reader (Spectramax 190 plate reader; Molecular Devices, Sunnyvale, CA, USA). Finally, the reaction was initiated by the addition of 10 μL of 0.13 mM NADH and measured for 5 min.
For the assay of in vitro inhibition of the mitochondrial complex I activities, 10 μL of different concentrations each of amorphigenin and rotenone were prepared in alcohol and diluted in 25 mM phosphate buffer (pH 7.2), then mixed with 10 μL of the mitochondria. The enzyme activity was immediately determined by the method as described above. For negative controls, 10 μL of 25 mM phosphate buffer (pH 7.2) instead of amorphigenin or rotenone were used in the assays. The inhibitory extent of the compounds was expressed as the inhibitor concentrations leading to 50% of the enzyme activity reduction (IC50).
Applying Microsoft Excel 2003 software (Microsoft, Redmond, WA, USA), the average enzyme activitie results, adjusted by Abbott, were subjected to probit analysis to calculate IC50 and correlation coefficient.

[7] = system: mitochondrial complex I of Cx. pipiens pallens; assay: Inhibition type and constants of mitochondrial complex I (enzyme-concentration plots, Lineweaver-Burk plots); type: biochemical, Culex pipiens pallens; details: for inhibition type: Lineweaver-Burk plots, NADH and endogenous ubiquinone as substrates; for reversibility of inhibition: enzyme activity vs enzyme concentration plots
Text: The inhibition effect on the mitochondrial complex I by amorphigenin and rotenone was also studied. […] The plots yielded straight lines passing through the origin.
The inhibitory kinetics of the mitochondrial complex I by amorphigenin and rotenone were studied by Lineweaver–Burk plots. […] Under the experimental conditions employed, the oxidative reaction of NADH by the mitochondrial complex I followed Michaelis–Menten kinetics. The double-reciprocal plots yielded a family of straight lines with different slopes and intercepts but they intersected one another in the second quadrant. […] Equilibrium constants for inhibitor binding with the free enzyme (KI) and with the enzyme-substrate complex (KIS) can be calculated according to the Foumulations (1) and (2) based on the slope and the vertical intercept against the concentration of inhibitors in Figure 3, respectively. (1) Slope=Ks/Vm(1+[I]/KI) (2) Intercept=1/Vm(1+[I]/KIS)
Different concentrations of NADH were incubated with the mitochondria and assay buffer to examine the enzyme kinetics of NADH with and without the addition of various concentrations of rotenoids. The inhibition type of the compounds on the enzyme was assayed by Lineweaver-Burk plots. The inhibition constant was determined by plots of the apparent 1/Vm or Km/Vm versus concentration of the inhibitor [40, 58].

[8] = system: mitochondrial complex I prepared from a pig's heart; set-up: method as in doi:10.1016/S0926-6593(65)80060-1; details: cited from earlier work
[9] = system: mitochondrial complex I from submitochondrial particles of blow fly flight-muscle; set-up: method as in doi:10.1016/S0960-894X(00)80645-9; details: cited from earlier work
[10] = system: NADH-ubiquinone reductase of bovine heart submitochondrial particles; set-up: method as in PMID 7925463; details: against exogenous quinine DB and DPB; cited from earlier work
[11] = set-up: method as in earlier work; details: summer sunlight; cited from earlier work
[12] = system: bovine heart mitochondrial complex I; details: cited from earlier work
[13] = system: larvae of Culex pipiens pallens; set-up: method as in PMID 25690287; details: cited from earlier work

In the case of amorphigenin 8′-β-glucoside, the “loss of the fourth instar larvae” value [1] is listed as 85% and the pupae formation [1] is listed as “without the formation of pupae”.
In the case of `C=C(C)[C@@H]1Cc2c(ccc3c2O[C@@H]2COc4cc(OC)c(OC)cc4[C@@H]2C3=O)O1` [5′β- epirotenone], the “times less inhibiting than rotenone” value [2] is given as “about 1000 times”, the LC50 [3] is given as 225.70 µg/mL (≈ 572 µM) and the “times less toxic than rotenone” value ([3]; relative to rotenone) is given as “about 24 times”.
For `C=C(C)[C@@H]1CCC2=CC(=O)C[C@@H](C)[C@]2(C)C1` [Nootkatone, nootkatone], the “inhibition of acetylcholinesterase enzyme” value ([4]; any of the four arthropod models tested) is listed as “did not inhibit”.
In the case of `C=C(C)[C@H]1Cc2c(ccc3c2O[C@@H]2COc4cc(OC)c(OC)cc4[C@@H]2C3=O)O1` [Rotenone, reference compound], the “decrease of mitochondrial complex I activity compared with control” value (shortened to “decrease”) ([5]; 1.25 μmol/L, NADH substrate) is reported as 1.45 fold, the “decrease” value ([5]; 2.5 μmol/L, NADH substrate) is reported as 1.77 fold and the “decrease” value ([5]; 5 μmol/L, NADH substrate) is reported as 2.41 fold. The IC50 ([5]; read-out: IC50 (μmol/L), in vivo, fourth-instar larvae exposed 24 h, NADH substrate) was 2.52 µmol/L, the “decrease” value ([6]; 3 μmol/L) was “significantly decreased” and the “decrease” value ([6]; 4 μmol/L) was “significantly decreased”. For the same compound, the IC50 [6] was 3.14 µmol/L, the inhibition type [7] was “mixed-I type” and the reversibility of inhibition [7] was “reversible”. For the same compound, the “in vitro IC50” value [8] was 1.8 × 10^−5 μmol/mg protein, the inhibition type [9] was “reversible competitive inhibitor” and the inhibition type [10] was “noncompetitive”. The “time until all toxicity is lost” value [11] was 2 to 3 days and the LC50 [3] was 9.33 µg/mL (≈ 23.7 µM).
For `Cc1ccc(C(C)C)cc1O` [Carvacrol, carvacrol], the “inhibition of acetylcholinesterase enzyme” value ([4]; house flies, ticks and cockroaches) is given as “slight inhibition” and the “inhibition of acetylcholinesterase enzyme” value ([4]; mosquito) is given as “did not inhibit”.
For arylazidoamorphigenin, the “inhibitory potency compared with rotenone” value [12] is given as “comparable with those of rotenone”.
For `C=C(C)C1Cc2c(ccc3c2OC2COc4cc(OC)c(OC)cc4C2C3O)O1` (stereo not shown) [rotenone reduced with NaBH4], the “in vitro IC50” value [8] is listed as 2.0 × 10^−5 μmol/mg protein.
With `C=C(CO)[C@H]1Cc2c(ccc3c2O[C@@H]2COc4cc(OC)c(OC)cc4[C@@H]2C3=O)O1` [Amorphigenin] the “decrease” value ([5]; 1.25 μmol/L, NADH substrate) was 1.52 fold, the “decrease” value ([5]; 2.5 μmol/L, NADH substrate) was 1.78 fold and the “decrease” value ([5]; 5 μmol/L, NADH substrate) was 2.43 fold. For the same compound, the IC50 ([5]; fourth-instar larvae exposed 24 h, NADH substrate, read-out: IC50 (μmol/L), in vivo) was 2.43 µmol/L, the “decrease” value ([6]; 2 μmol/L) was 27.38% and the “decrease” value ([6]; 3 μmol/L) was 50.00%. The “decrease” value ([6]; 4 μmol/L) was 70.24%, the IC50 [6] was 2.86 µmol/L and the inhibition type [7] was “mixed-I type”. The reversibility of inhibition [7] was “reversible”, the “LC50, larvicidal activity” value [13] was 4.29 µg/mL (≈ 10.5 µM) and the “LC90, larvicidal activity” value [13] was 11.27 µg/mL (≈ 27.5 µM). The “inhibitory potency compared with rotenone” value [12] was “comparable with rotenone”.
